Measured values published in patent US12421254B2, “KRAS modulators and uses thereof” (Quanta Therapeutics, Inc., priority 2023, dated 2025).
pIC50: −log10 of the molar value.

Experiments:
[1] = target: GST-tagged KRAS-G12V (2-169) (Homo sapiens, UniProt P01116, G12V); test: Nucleotide exchange assay (NEA), SOS-mediated, HTRF, KRAS G12V; type: biochemical; details: Table 4; IC50 extracted at 90 min; 80 nM SOS
Procedure, shortened: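 Exchange onto fluorescent GTP-DY-647P1 (150 nM final) catalysed by 80 nM SOS1cat was followed by Tb-anti-GST HTRF at RT for up to 90 min, after 1 h compound pre-incubation with 0.25 nM GST-tagged KRAS-G12V (2-169), pH 7.3. DMSO = 0%, no-SOS blank = 100%; 4-parameter IC50 taken at 90 min.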

[2] = target: GST-tagged KRAS-G12D (2-169) (Homo sapiens, UniProt P01116, G12D); test: Nucleotide exchange assay (NEA), SOS-mediated, HTRF, KRAS G12D; type: biochemical; details: Table 4; IC50 extracted at 30 min; 20 nM SOScat; read-out: NEA G12D IC50
Procedure, shortened: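 SOS1cat-driven loading of fluorescent GTP-DY-647P1 (150 nM) onto GST-KRAS-G12D (2-169, 0.25 nM) read by time-resolved FRET; SOScat 20 nM, compound preincubated with KRAS 1 h at RT. Signal blanked to no-SOS reactions, normalized to DMSO; IC50 fitted from the 30-min read.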

Sequence of GST-tagged KRAS-G12D (2-169) (P01116 2-169 isoform P01116-2 G12D): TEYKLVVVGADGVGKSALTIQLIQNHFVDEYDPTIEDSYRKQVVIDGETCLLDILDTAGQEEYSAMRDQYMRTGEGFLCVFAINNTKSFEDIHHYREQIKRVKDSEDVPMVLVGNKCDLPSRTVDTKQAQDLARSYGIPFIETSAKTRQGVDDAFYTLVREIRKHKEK
Sequence of GST-tagged KRAS-G12V (2-169) (P01116 2-169 isoform P01116-2 G12V): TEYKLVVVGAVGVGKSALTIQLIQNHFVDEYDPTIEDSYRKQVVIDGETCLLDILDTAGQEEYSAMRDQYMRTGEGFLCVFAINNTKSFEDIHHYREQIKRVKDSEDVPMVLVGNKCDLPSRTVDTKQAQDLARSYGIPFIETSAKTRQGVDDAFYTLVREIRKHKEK

SMILES	pIC50 [1]	pIC50 [2]
N#Cc1c(N)sc2c1C1(CN(c3nc(OCC45CCCN4CC(F)C5)nc(N4C5CCC4C(O)C5)n3)C1)SC2 (mixture of isomers) [Compound 282, 2-amino-1′-[4-[[(2R,8S)-2-fluoro-1,2,3,5,6,7-hexahydropyrrolizin-8-yl]methoxy]-6-[(1RS,2SR,4SR)-2-hydroxy-7-azabicyclo[2.2.1]heptan-7-yl]-1,3,5-triazin-2-yl]spiro[6H-thieno[3,4-b]thiophene-4,3′-azetidine]-3-carbonitrile]	7.00 to 8.00	6.00 to 7.00
C[C@@]1(O)CCCN(c2nc(OC[C@@]34CCCN3C[C@H](F)C4)nc(N3CC4(C3)c3c(sc(N)c3C#N)CS4(=O)=O)n2)C1 (racemic) [Compound 113, 2-amino-5,5-dioxo-1′-[4-[[rac-(2R,8S)-2-fluoro-1,2,3,5,6,7-hexahydropyrrolizin-8-yl]methoxy]-6-[rac-(3R)-3-hydroxy-3-methyl-1-piperidyl]-1,3,5-triazin-2-yl]spiro[6H-thieno[3,4-b]thiophene-4,3′-azetidine]-3-carbonitrile]	6.00 to 7.00	6.00 to 7.00
N#Cc1c(N)sc2c1C1(CN(c3nc(OC[C@@]45CCCN4C[C@H](F)C5)nc(Oc4cn[nH]c4)n3)C1)SC2 [Compound 164, 2-amino-1′-[4-[[(2R,8S)-2-fluoro-1,2,3,5,6,7-hexahydropyrrolizin-8-yl]methoxy]-6-(1H-pyrazol-4-yloxy)-1,3,5-triazin-2-yl]spiro[6H-thieno[3,4-b]thiophene-4,3′-azetidine]-3-carbonitrile]	7.00 to 8.00	6.00 to 7.00
CC(c1ccccc1N)N(C)c1nc(OC[C@@]23CCCN2C[C@H](F)C3)nc(N2CC3(CCc4sc(N)c(C#N)c43)C2)n1 (stereo partly drawn) [Compound 121, 2′-amino-1-(4-((1-(2-aminophenyl)ethyl)(methyl)amino)-6-(((2R,7aS)-2-fluorotetrahydro-1H-pyrrolizin-7a(5H)-yl)methoxy)-1,3,5-triazin-2-yl)-5′,6′-dihydrospiro[azetidine-3,4′-cyclopenta[b]thiophene]-3′-carbonitrile]	≤ 4.70	≤ 4.70
CN(C)CC1(COc2nc(N3CCOCC(C)(O)C3)nc(N3CC4(C3)SCc3sc(N)c(C#N)c34)n2)CC1(F)F (stereo not drawn) [Compound 281, 2-amino-1′-[4-[[1-[(dimethylamino)methyl]-2,2-difluoro-cyclopropyl]methoxy]-6-(6-hydroxy-6-methyl-1,4-oxazepan-4-yl)-1,3,5-triazin-2-yl]spiro[6H-thieno[3,4-b]thiophene-4,3′-azetidine]-3-carbonitrile]	> 8.00	> 8.00
C[C@@]1(O)CCCN(c2nc(OC[C@@]34CCCN3C[C@H](F)C4)nc(N3CCC4(CCCc5sc(N)c(C#N)c54)C3)n2)C1 (stereo partly drawn) [Compound 60, 2-amino-1′-[4-[[(2R,8S)-2-fluoro-1,2,3,5,6,7-hexahydropyrrolizin-8-yl]methoxy]-6-[(3R)-3-hydroxy-3-methyl-1-piperidyl]-1,3,5-triazin-2-yl]spiro[6,7-dihydro-5H-benzothiophene-4,3′-pyrrolidine]-3-carbonitrile]	4.70 to 6.00	4.70 to 6.00
CCN(c1nc(OC[C@@H]2CC[C@@H]3CN(C)CCN32)nc(N2CC3(C2)SCc2sc(N)c(C#N)c23)n1)[C@H](C)c1cccnc1N (mixture of isomers) [Compound 216, 1′-[4-[[(6SR,8aRS)-2-methyl-3,4,6,7,8,8a-hexahydro-1H-pyrrolo[1,2-a]pyrazin-6-yl]methoxy]-6-[[(1R)-1-(2-amino-3-pyridyl)ethyl]-ethyl-amino]-1,3,5-triazin-2-yl]-2-amino-spiro[6H-thieno[3,4-b]thiophene-4,3′-azetidine]-3-carbonitrile]	> 8.00	6.00 to 7.00
N#Cc1c(N)sc2c1C1(CN(c3nc(OC[C@@]45CCCN4C[C@H](F)C5)nc(N4[C@@H]5CC[C@H]4C[C@H](O)C5)n3)C1)SC2 [Compound 275, 2-amino-1′-[4-[[(2R,8S)-2-fluoro-1,2,3,5,6,7-hexahydropyrrolizin-8-yl]methoxy]-6-[(1S,5R)-3-hydroxy-8-azabicyclo[3.2.1]octan-8-yl]-1,3,5-triazin-2-yl]spiro[6H-thieno[3,4-b]thiophene-4,3′-azetidine]-3-carbonitrile]	6.00 to 7.00	6.00 to 7.00
N#Cc1c(N)sc2c1C1(CC2)CN(c2nc(OCC3(CN4CCOCC4)CC3)nc(OC3COCC3O)n2)C1 (racemic) [Compound 77, 2-amino-1′-[4-[rac-(3S,4S)-4-hydroxytetrahydrofuran-3-yl]oxy-6-[[1-(morpholinomethyl)cyclopropyl]methoxy]-1,3,5-triazin-2-yl]spiro[5,6-dihydrocyclopenta[b]thiophene-4,3′-azetidine]-3-carbonitrile; 2,2,2-trifluoroacetic acid]	6.00 to 7.00	4.70 to 6.00
CCN(c1nc(OCC2(CN(C)C)CC2(F)F)nc(N2CC3(C2)SCc2sc(N)c(C#N)c23)n1)[C@H](C)c1cccnc1N (stereo partly drawn) [Compound 198, 2-amino-1′-[4-[[(1R)-1-(2-amino-3-pyridyl)ethyl]-ethyl-amino]-6-[[1-[(dimethylamino)methyl]-2,2-difluoro-cyclopropyl]methoxy]-1,3,5-triazin-2-yl]spiro[6H-thieno[3,4-b]thiophene-4,3′-azetidine]-3-carbonitrile]	> 8.00	> 8.00
C[C@@]1(O)CCCN(c2nc(OC[C@]34CCCN3[C@H](COc3cc(C(F)(F)F)ncn3)CC4)nc(N3CC4(C3)SCc3sc(N)c(C#N)c34)n2)C1 (racemic) [Compound 252, 2-amino-1′-[4-[(3R)-3-hydroxy-3-methyl-1-piperidyl]-6-[[(3SR,8RS)-3-[[6-(trifluoromethyl)pyrimidin-4-yl]oxymethyl]-1,2,3,5,6,7-hexahydropyrrolizin-8-yl]methoxy]-1,3,5-triazin-2-yl]spiro[6H-thieno[3,4-b]thiophene-4,3′-azetidine]-3-carbonitrile]	> 8.00	> 8.00
C[C@@]1(O)CCCN(c2nc(OC[C@@]34CCCN3C[C@H](F)C4)nc(N3CC4(C3)c3c(sc(N)c3C#N)C[S+]4[O-])n2)C1 (stereo partly drawn) [Compound 126, 2-amino-5-oxo-1′-[4-[[(2R,8S)-2-fluoro-1,2,3,5,6,7-hexahydropyrrolizin-8-yl]methoxy]-6-[(3R)-3-hydroxy-3-methyl-1-piperidyl]-1,3,5-triazin-2-yl]spiro[6H-thieno[3,4-b]thiophene-4,3′-azetidine]-3-carbonitrile]	4.70 to 6.00	7.00 to 8.00
N#Cc1c(N)sc2c1C1(CN(c3nc(OC[C@@]45CCCN4C[C@H](F)C5)nc(N4C5CNCC4CC(=O)C5)n3)C1)SC2 [Compound 276, 2-amino-1′-[4-[[(2R,8S)-2-fluoro-1,2,3,5,6,7-hexahydropyrrolizin-8-yl]methoxy]-6-(7-oxo-3,9-diazabicyclo[3.3.1]nonan-9-yl)-1,3,5-triazin-2-yl]spiro[6H-thieno[3,4-b]thiophene-4,3′-azetidine]-3-carbonitrile]	7.00 to 8.00	6.00 to 7.00
CCN(c1nc(OC[C@@]23CCCN2C[C@H](F)C3)nc(N2CC3(C2)SCc2sc(N)c(C#N)c23)n1)C(C)c1cccnc1N (stereo partly drawn) [Compound 144, 2-amino-1′-[4-[1-(2-amino-3-pyridyl)ethyl-ethyl-amino]-6-[[(2R,8S)-2-fluoro-1,2,3,5,6,7-hexahydropyrrolizin-8-yl]methoxy]-1,3,5-triazin-2-yl]spiro[6H-thieno[3,4-b]thiophene-4,3′-azetidine]-3-carbonitrile]	> 8.00	> 8.00
C[C@H](c1cccnc1N)N(CC(N)=O)c1nc(OC[C@@]23CCCN2C[C@H](F)C3)nc(N2CC3(C2)SCc2sc(N)c(C#N)c23)n1 [Compound 199, 2-[[4-(2-amino-3-cyano-spiro[6H-thieno[3,4-b]thiophene-4,3′-azetidine]-1′-yl)-6-[[(2R,8S)-2-fluoro-1,2,3,5,6,7-hexahydropyrrolizin-8-yl]methoxy]-1,3,5-triazin-2-yl]-[(1R)-1-(2-amino-3-pyridyl)ethyl]amino]acetamide]	> 8.00	> 8.00
C[C@H](c1cccnc1N)N(C)c1nc(OC[C@@]23CCCN2C[C@H](F)C3)nc(N2CCC3(CCc4sc(N)c(C#N)c43)C2)n1 (stereo partly drawn) [Compound 195, 2-amino-1′-[4-[methyl-[(1R)-1-(2-amino-3-pyridyl)ethyl]amino]-6-[[(2R,8S)-2-fluoro-1,2,3,5,6,7-hexahydropyrrolizin-8-yl]methoxy]-1,3,5-triazin-2-yl]spiro[5,6-dihydrocyclopenta[b]thiophene-4,3′-pyrrolidine]-3-carbonitrile]	> 8.00	7.00 to 8.00
CC(c1cccnc1C(F)F)N(C)c1nc(OC[C@@]23CCCN2C[C@H](F)C3)nc(N2CC3(C2)SCc2sc(N)c(C#N)c23)n1 (stereo partly drawn) [Compound 205, 2-amino-1′-[4-[1-[2-(difluoromethyl)-3-pyridyl]ethyl-methyl-amino]-6-[[(2R,8S)-2-fluoro-1,2,3,5,6,7-hexahydropyrrolizin-8-yl]methoxy]-1,3,5-triazin-2-yl]spiro[6H-thieno[3,4-b]thiophene-4,3′-azetidine]-3-carbonitrile]	6.00 to 7.00	4.70 to 6.00
N#Cc1c(N)sc2c1C1(CC2)CN(c2nc(OC[C@@]34CCCN3C[C@H](F)C4)nc(N3CCC4CC4(CO)C3)n2)C1 (stereo partly drawn) [Compound 41, 2-amino-1′-[4-[[(2R,8S)-2-fluoro-1,2,3,5,6,7-hexahydropyrrolizin-8-yl]methoxy]-6-[1-(hydroxymethyl)-3-azabicyclo[4.1.0]heptan-3-yl]-1,3,5-triazin-2-yl]spiro[5,6-dihydrocyclopenta[b]thiophene-4,3′-azetidine]-3-carbonitrile]	6.00 to 7.00	4.70 to 6.00
